Experimental data taken from patent US20260345641A1, “COMPOSITIONS AND USES THEREOF” (Algorae Pharmaceuticals Ltd, priority 2023, published 2026).

What was measured:
[1] = test system: SH-S5Y5 neuroblastoma cells; test: Cell viability (MTT) in response to Aβ, in vitro model of Alzheimer's disease; type: cell-based; details: 20 μM Aβ, 24 h
From the text: (§1) The SH-S5Y5 neuroblastoma cell line was used for pre-clinical analysis. The SH-S5Y5 cell line is commonly used as a model for neurodegenerative disorders as the cells can be converted to various types of functional neurons by the addition of specific compounds (see, e.g., Xicoy et al., 2017, Molecular Neurodegeneration, 12: 10). In addition, the SH-S5Y5 cell line has been used widely in experimental neurological studies, including analysis of neuronal differentiation, metabolism, and function related to neurodegenerative processes, neurotoxicity and neuroprotection (see, e.g., Datki et al., 2003, Brain Research Bulletin, 62(3): 22-229; and Xie et al., 2010, Chinese Medical Journal, 123(8): 1086-1092).
100 μL MTT reagent was added to each well (final concentration 0.5 mg/mL). Cells were then incubated at 37 °C, 5% CO2 for 4 hours. Solubilization buffer (100 μL) was then added to each well and further incubated at 37 °C, 5% CO2 for 24 hours. Absorbance was then measured by spectrophotometer at 550-600 nm and background corrected at 650 nm.
Amyloid-β (Aβ; 1 mg) was dissolved in 2 mL of 1,1,1,3,3,3-hexafluoro-2-propanol (HFIP). An additional 200 μL of HFIP was then added due to volatility. The Aβ was sealed with parafilm and vortexed for 30 seconds before aliquoting at 100 μL per 1.5 mL tube. HFIP was then evaporated in fume hood for 8 hours. Tubes were then sealed with lid and parafilm and stored at −80 °C. Prior to use, Aβ was reconstituted in DMSO to a final volume of 10% v/v for 10-15 min at RT and vortexed every 3-5 min. F-12 medium was then added to a final volume of 90% v/v. Aβ was then stored at 4 °C for 24 hours and vortexed before use.
Cells were seeded in 96-well microplates and incubated 37 °C, 5% CO2 for 24 hours.

SH-SY5Y cells = test: Gene expression analysis by RNA sequencing in the presence of Aβ; type: cell-based, human
From the text: as §1
Total RNA was isolated from cells using TRIzol in accordance with the manufacturer's instructions (Invitrogen, Carlsbad, CA, USA). RNA concentration and quality was assessed using a NanoDrop spectrophotometer. Only samples with a 260/280 ratio of ≥1.8 were used for further analysis.
Messenger RNA (mRNA) was purified from total RNA using poly-T oligo attached magnetic beads. After fragmentation, cDNA synthesis was performed in accordance with the manufacturer's instructions (Illumina, San Diego, CA, USA) to generate a directional and non-directional library. Libraries were checked with Qubit, real-time PCR was performed for quantification, and size distribution detection was performed using the Bioanalyzer. Quantified libraries were pooled and sequenced on an Illumina platform, according to the manufacturer's instructions.
Raw reads were filtered and mapped to human reference genome (GRCh38/hg38) using HISAT2. Differential gene expression analysis was performed using R Package DEG seq2. […] Manual annotation of genes previously associated with specific neurodegenerative disorders and dementias was performed following a text mining analysis.

[2] = oral administration; cited from earlier work

Row | Structure (SMILES) | Cell viability as measured by MTT ([1]; CBD 2.5 μM) | Cell viability as measured by MTT ([1]; CBD 5 μM) | Cell viability as measured by MTT ([1]; CBD 10 μM) | MFSD8 expression (SH-SY5Y cells) | MBP expression (SH-SY5Y cells; 5 μM CBD, Aβ, control 0.089, P 0.012) | GBE1 expression (SH-SY5Y cells; 5 μM CBD, Aβ, control 1.194, P 0.037) | ERCC4 expression (SH-SY5Y cells; 5 μM CBD, Aβ, control 1.970, P 0.037) | MT-TW expression (SH-SY5Y cells; 5 μM CBD, Aβ, control 2.846, P 0.023) | TRAPPC2 expression (SH-SY5Y cells; 5 μM CBD, Aβ, control 3.872, P 0.013) | SLC20A2 expression (SH-SY5Y cells; 5 μM CBD, Aβ, control 7.014, P 0.046) | IRF6 expression (SH-SY5Y cells; 5 μM CBD, Aβ, control 7.365, P 0.012) | LAMP1 expression (SH-SY5Y cells; 5 μM CBD, Aβ, control 34.350, P 0.018) | TAF15 expression (SH-SY5Y cells; 5 μM CBD, Aβ, first TAF15 line, control 14.968, P 0.046) | TAF15 expression (SH-SY5Y cells; 5 μM CBD, Aβ, second TAF15 line, control 15.869, P 0.046) | bioavailability [2]
1 | C=C(C)[C@@H]1CCC(C)=C[C@H]1c1c(O)cc(CCCCC)cc1O [CBD, Cannabidiol] | 0.011 | 0.031 | 0.116 | 2.603 FPKM | 0.046 FPKM | 1.305 FPKM | 2.197 FPKM | 4.309 FPKM | 4.267 FPKM | 7.447 FPKM | 7.774 FPKM | 31.452 FPKM | 17.887 FPKM | 17.095 FPKM | –
2 | COc1ccc2c3c1O[C@H]1C[C@@H](O)C=C[C@@]31CCN(C)C2 [Galantamine] | – | – | – | – | – | – | – | – | – | – | – | – | – | – | high bioavailability
3 | CCN(C)C(=O)Oc1cccc([C@H](C)N(C)C)c1 [Rivastigmine] | – | – | – | – | – | – | – | – | – | – | – | – | – | – | high bioavailability
